In patent US20220323614A1, “KRAS-SPECIFIC CYCLIC PEPTIDES, COMPOSITIONS, AND METHODS OF USING AND MAKING” (Indi Molecular, Inc., priority 2021, published 2022):
Where two headings read alike, the source gives them in different places. Where a SMILES comes first, the peptide text is derived from it. Bridges are numbered along the chain shown (N, C = ends). Triazole bridges read from a SMILES are 1,4-linked. Where no end group is shown, it is not given here. [ ]: non-standard residue; d: D form. The star is where a group is joined. Phe(4-guanidino) = N=C(N)Nc1ccc(C[C@H](N)C(=O)O)cc1; dLys(N3) = [N-]=[N+]=NCCCC[C@@H](N)C(=O)O; dPhe(4-Cl) = N[C@H](Cc1ccc(Cl)cc1)C(=O)O; Lys(N3) = [N-]=[N+]=NCCCC[C@H](N)C(=O)O; Morpholinoacetyl = O=C(CN1CCOCC1)*; Palmitoyl = CCCCCCCCCCCCCCCC(=O)*; dPra = C#CC[C@@H](N)C(=O)O; Pra = C#CC[C@H](N)C(=O)O

Experiments:
[1] = system: AsPC-1 (G12D) and BxPC-3 (WT); test: spheroid proliferation assay using CellTiter-Glo Assay; format: cell-based
Method: FIGS. 2A-2B are graphs of spheroid proliferation assay of AsPC-1 (G12D) and BxPC-3 (WT) using CellTiter-Glo Assay. […] The ligand assayed was Ac-wkyf-Lys(Pal) (SEQ ID NO:46). BxPC-3 and AxPC-1 were cultured as spheroids to compare the cell viability to that observed under adherent conditions. […] These conditions more closely parallel the tumor microenvironment.

pERK in AsPC-1 cells = test: pERK levels in AsPC-1 cells, Western blot normalized to tubulin (pERK_G12D); format: cell-based; details: FIG. 3, incubated for 12 hours
Method: FIG. 3 is a graph of pERK levels measured in BxPC-3 cells (first eight bars) and AsPC-1 cells (last eight bars) in the presence of different ligands or controls. For each cell type, the graph bars are, from left to right: cell only, DMSO 1.25%, BI-2852, KRpep-2d, NH2-wkyf (SEQ ID NO:46), Ac-wkyf (SEQ ID NO:46), Pal-wkyf (SEQ ID NO:46), Ac-wkyf-Lys(Pal) (SEQ ID NO:46). The levels of pERK are normalized to tubulin. The cells were grown overnight, treated with the ligands, incubated for 12 hours, lysed, gel electrophoresed, and Western blotted. Phosphorylation of ERK is a KRAS-dependent signaling target. […] BI-2852 and Krpep-2d are two positive controls developed by Boehringer Ingelheim and Takeda.
FIG. 5 is a graph of pERK inhibition in BxPC-3 cells (first eight bars) and AsPC-1 cells (last eight bars) in the presence of the substituted ligands of FIG. 3. For each cell type, the graph bars are, from left to right: DMSO 0.5%, KRpep-2d, Ac-wkyf-Lys(Pal) (SEQ ID NO:46), Ac-w(Dab)yf-Lys(Pal), Ac-wk(4-Br-f)f-Lys(Pal), Ac-wky(4-Br-f)-Lys(Pal), Ac-wky(2-Nal)-Lys(Pal), wkyf (SEQ ID NO:46).
Tables 15A-15E provide a summary of the activity and effects of various of the disclosed wkyf-based cyclic peptides. […] MTT_G12D used AsPc-1 at 5 μM. MTT_WT used BxPC-3 at 5 μM. pERK_G12D used AsPC-1 at 4 μM for 12 hours. pERK_WT used BxPC-3 at 4 μM for 12 hours.

[2] = tolerability of Indi-199 in PBS; format: in vivo, mouse; details: simple formulation (PBS)
[3] = mouse pharmacokinetics of Indi-199 by IV, IP and PO; format: in vivo; details: for half-life: read-out: T½ (converted)
Description: FIG. 14 is a graph of mouse pharmacokinetics of Indi-199, an example of the disclosed cyclic peptides, by different administration routes (IV, IP, and PO).

[4] = system: AsPC1 (G12D mutant) cell line, BxPC3 (wild type), and SW 1990 (G12D mutant); details: confocal microscopy, Streptavidin-phycoerythrin (PE) visualization
Method: A biotinylated KRAS(G12D) targeted cyclic peptide and an equivalent agent with membrane targeting capability were tested for membrane association using confocal microscopy. Binding to AsPC1 (G12D mutant) cell line, BxPC3 (wild type), and SW 1990 (G12D mutant) were compared.

KRAS (G12D) = molecular target: T1, KRAS (G12D) (Homo sapiens, UniProt P01116, G12D); test: Western blot of KRAS (G12D) levels in pancreatic cell lysate; format: cell-based; details: pancreatic cancer cells incubated with the peptide
T1 construct: decreasing or depleting levels of KRAS (G12D) in pancreatic cancer cells; endogenous in cells
Description: The disclosed cyclic peptides can be used, for example, in methods for inhibiting the KRAS (G12D) oncoprotein. Such methods can include treating cancer cells having the KRAS (G12D) mutation. […] In some forms, a cyclic peptide of Formula I can be used to inhibit KRAS (G12D) expressed in any cancer cell. For example, the KRAS (G12D) oncoprotein has been identified in pancreatic, colorectal, lung, biliary tract, and ovarian cancer cells.

[5] = in vivo, mouse, 20 mg/kg IP, 4 mg/mL in PBS
[6] = in vivo, mouse, 20 mg/kg IV bolus, 4 mg/mL in PBS
[7] = in vivo, mouse, 50 mg/kg PO, 5 mg/mL in PBS

What does the source list for `CCCCCCCCCCCCCCCC(=O)NCCCC[C@@H](NC(=O)[C@H]1CCCCn2cc(nn2)C[C@@H](NC(C)=O)C(=O)N[C@@H](Cc2c[nH]c3ccccc23)C(=O)N[C@@H](CCCCN)C(=O)N[C@@H](Cc2ccc(O)cc2)C(=O)N[C@@H](Cc2ccccc2)C(=O)N1)C(N)=O` [Ac-wkyf-Lys(Pal)] (Ac-[dPra]WKYF[dLys(N3)][dK](Palmitoyl)-NH2; triazole 1-6)?
selectivity under spheroid culturing ([1]; FIG. 2B, spheroid vs adherent culture, AsPC-1 (G12D) vs BxPC-3 (WT)): selectivity persist under spheroid culturing; reduction of cell viability, spheroid compared to adherent conditions ([1]; FIGS. 2A-2B, CellTiter-Glo): more effective at reducing cell viability; pERK inhibitory effect (pERK in AsPC-1 cells): most inhibitory effects

Which tolerability [2] does the source give for `CCCCCCCCCCCCCCCC(=O)NCCCC[C@H](NC(=O)[C@@H]1CCCCn2cc(nn2)C[C@H](NC(=O)CN2CCOCC2)C(=O)N[C@H](Cc2c[nH]c3ccccc23)C(=O)N[C@H](CCCCN)C(=O)N[C@H](Cc2ccc(O)cc2)C(=O)N[C@H](Cc2ccc(Cl)cc2)C(=O)N1)C(N)=O` [Indi-199] (Morpholinoacetyl-[Pra][dW][dK][dY][dPhe(4-Cl)][Lys(N3)]K(Palmitoyl)-NH2; triazole 1-6) here?
Its tolerability is “well tolerated”.

What about the AUC(0-inf) [3, 5] of the same molecule?
The AUC(0-inf) was 316 µM·h.

What about the AUC(0-t) [3, 5] of the same molecule?
The AUC(0-t) was 213 µM·h.

And the Cmax [3, 5]?
Its Cmax is 12 µM.

What about the Tmax [3, 5] of the same molecule?
The Tmax was 6 h.

What about the half-life ([3]; in vivo, mouse, 20 mg/kg IP, 4 mg/mL in PBS, terminal elimination phase inadequately defined) of the same molecule?
The half-life was 13.4 h.

What about the AUC(0-inf) [3, 6] of the same molecule?
The AUC(0-inf) was 403 µM·h.

What about the AUC(0-t) [3, 6] of the same molecule?
Its AUC(0-t) is 402 µM·h.

And the Cmax [3, 6]?
The Cmax was 252 µM.

And the Tmax [3, 6]?
Its Tmax is 0 h.

And the clearance [3, 6]?
The clearance was 0.587 mL/min/kg.

What about the half-life [3, 6] of the same molecule?
The half-life was 2.72 h.

What about the Vd ([3]; in vivo, mouse, 20 mg/kg IV bolus, 4 mg/mL in PBS, read-out: Vdss) of the same molecule?
Its Vd is 0.0976 L/kg.

What about the AUC(0-t) [3, 7] of the same molecule?
The AUC(0-t) was 0.182 µM·h.

What about the Cmax [3, 7] of the same molecule?
Its Cmax is 0.033 µM.

What about the Tmax [3, 7] of the same molecule?
The Tmax was 4 h.

What about the bioavailability [3, 7] of the same molecule?
Its bioavailability is 0.018%.

And the exposure ([3]; iv and ip administration, FIG. 14)?
The exposure was “sustained exposure”.

With Biotin-wky(4-Cl-F)-Lys(Pal) as the molecule, how does the membrane association [4] read?
Its membrane association is “demonstrated membrane association”.

With “QNGnfY (QN[Phe(4-guanidino)]Y; also: cyclic, closure not given here, D-amino acids, places not given here)” as the molecule, how does the “levels of KRAS (G12D)” value (KRAS (G12D)) read?
Its value is “capable of decreasing or depleting levels of KRAS (G12D)”.
